Measurements: US20230097992A1, “BIVALENT EGF FUSION TOXINS” (The Regents of the University of Colorado, a body corporate, priority 2020, published 2023)
pIC50: −log10 of the molar value.

How the values were obtained:
[1] = system: human EGFR-positive HNSCC cell line UMSCC1; experiment: CellTiter-Glo Luminescent Cell Viability Assay, UMSCC1; type: cell-based; settings: UMSCC1, read-out: IC50 to HNSCC cell lines (Erlotinib)
Experimental: (§1) FIG. 9 presents the data from in vitro efficacy analysis of the human EGF fusion toxins against human EGFR-positive HNSCC cell lines using CellTiter-Glo® Luminescent Cell Viability Assay (Promega) Y-axis: inhibition rate of the cell viability by determining the number of viable cells based on the quantification of the ATP present. X-axis: plated fusion toxin concentration. Cycloheximide (1.25 mg/mL) was used as a positive control. The negative control contained cells without fusion toxin. Data were from three individual experiments for each HNSCC cell line. Error bars indicate SD.
(§2) Y-axis: inhibition rate of the cell viability by determining the number of viable cells based on the quantification of the ATP present. […] Cycloheximide (1.25 mg/mL) was used as a positive control. […]
(§3) In vitro efficacy analysis of the human EGF fusion toxins (mEGF-IT and bEGF-IT) to the human HNSCC tumor cell lines was performed using CellTiter-Glo® Luminescent Cell Viability Assay (Promega Corporation, Madison, Wis.) as described previously (Zheng et al. (2017), Mol. Oncol. 11, 584-594, which is hereby incorporated by reference in its entirety). This cell viability assay measures the luminescence produced because of ATP production from metabolically active cells. […] The luminescence signals were recorded using BioTek Synergy LX Multi-Mode Reader.
(§4) IC50 was determined using nonlinear regression (curve fit) of Prism. […]

[2] = system: human EGFR-positive HNSCC cell line UMSCC22B; experiment: CellTiter-Glo Luminescent Cell Viability Assay, UMSCC22B; type: cell-based; settings: read-out: IC50 to HNSCC cell lines (Erlotinib)
Experimental: as §1, §2, §3, §4

[3] = system: human EGFR-positive HNSCC cell line Vu1365; experiment: CellTiter-Glo Luminescent Cell Viability Assay, Vu1365; type: cell-based; settings: read-out: IC50 to HNSCC cell lines (Erlotinib)
Experimental: as §1, §2, §3, §4

[4] = system: 14 human EGFR-positive HNSCC cell lines; experiment: CellTiter-Glo in vitro efficacy, all examined HNSCC cell lines together; type: cell-based
Experimental: Cycloheximide (1.25 mg/mL) was used as a positive control. […] Data were from three individual experiments for each HNSCC cell line.
In vitro efficacy of the human EGF fusion toxins against HNSCC cell lines were assessed using CellTiter-Glo® Luminescent Cell Viability Assay.

[5] = system: EGFR+ HNSCC cell line, Cal27; experiment: Blocking of anti-human EGFR mAb binding to Cal27 by nonbiotinylated fusion toxin (flow cytometry); settings: nonbiotinylated fusion toxin as competitor
Excerpt: FIGS. 3C-D present representative data from analysis of the blocking of anti-human EGFR mAb binding to human EGFR-expressing (EGFR^+) HNSCC Cal27 by mEGF-IT and bEGF-IT using flow cytometry. FIG. 3C presents representative flow cytometry data, and FIG. 3D presents the percentage inhibition of anti-human EGFR mAb binding to Cal27 cells plotted versus the concentration of binding competitor (mono-EGF-IT or bi-EGF-IT). The data are representative of three individual experiments.
The biotinylated EGF fusion toxins also dose-dependently bound to all other examined HNSCC cell lines (FIG. 3, 11, and Table 4). […] One limitation to the flow cytometry binding assay is that the extent of biotinylation should be similar between the constructs. Otherwise, it could be hard to attribute the differences in fluorescence intensities to a change in affinity. To overcome this limitation, a blocking assay using nonbiotinylated mono-EGF-IT or bi-EGF-IT to block the binding of the anti-human EGFR mAb to the EGFR+ HNSCC cell line, Cal27, was performed (Wang et al, 2007, Bioconjug Chem 18: 944-955). […] The 14 examined HNSCC cell lines represent the main HNSCC cell lines used in the research community of the head and neck cancers.

[6] = system: residual Cal27 tumor cells; experiment: CellTiter-Glo Luminescent Cell Viability Assay, residual Cal27 tumor cells; type: cell-based, human; settings: residual Cal27 cells from flank xenografts at day 14 after bEGF-IT 50 μg/kg once daily for 10 days
Excerpt: FIGS. 13A-C present in vitro binding affinity and efficacy analysis of the bEGF-IT to the residual Cal27 tumor cells. FIG. 13A: Flow cytometry binding affinity analysis of the bEGF-IT to the residual Cal27 tumor cells. The data were representative of three individual experiments. FIG. 13B: KD determination of the bEGF-IT to the residual Cal27 tumor cells using flow cytometry and nonlinear least squares fit. FIG. 13C: In vitro efficacy analysis of the bEGF-IT to the residual Cal27 tumor cells using CellTiter-Glo® Luminescent Cell Viability Assay. bEGF-IT group (green line); Anti-murine PD-1 immunotoxin group as negative control (blue line). Data were from three individual experiments. Error bars indicate SD.
The tumor was removed from the sacrificed flank-xenograft solid tumor-bearing mice and washed with PBS twice in sterile manner. Then the tumor sample was cut into small pieces (approximately 1 mm^3) on the lid of a petri dish and washed with PBS. The tissue pellet was resuspended in DMEM tissue culture medium and cultured in the T25 flask. After several days of culture, the tissue residues were removed and the residual tumor cells were cultured as parent Cal27 tumor cell line.
It was hypothesized that the residual tumor cells were still sensitive to the human EGF fusion toxin treatment. […]

[7] = system: NSG mice; experiment: In vivo off-target toxicity in NSG mice
Excerpt: FIGS. 12A-C presents representative images of necropsy results for NSG mice treated with mono-EGF-IT or bi-EGF-IT without tumor cell injection. Mice were euthanized on day 13 after the first injection of the fusion toxins. The images show representative gross changes observed in the ear (FIG. 12A), liver (FIG. 12C) and gastrointestinal tract of a representative NSG mouse treated with mono-EGF-IT compared to a representative NSG mouse treated with bi-EGF-IT.
Mono-EGF-IT (mEGF-IT), bEGF-IT, or DT390 was intraperitoneally injected (IP) starting at day 4 at 50 μg/kg, once daily for 10 consecutive days. […] The injected animals were observed daily for signs and symptoms of illness and scored at least twice weekly based on the parameters as previously reported (Peraino et al. (2013), J. Immunol. Methods 398-399, 33-43, which is hereby incorporated by reference in its entirety; Wang et al., 2015). The animals were humanely euthanized when the score exceeded the limit or the animal lost more than 15% of its pre-injection body weight. In addition, to assess whether the fusion toxins are toxic to the animals, NSG mice injected with the fusion toxins only were also included as control.
The main side effects of targeting EGFR are caused by off-target effects, because EGFR is expressed in many healthy tissues, include skin, liver, and gastrointestinal tract (Widakowich et al., (2007), Oncologist, 12, 1443-1455). […] To further assess these toxic effects, another in vivo toxicity study in non-tumor-bearing mice was performed. NSG mice were treated with mono-EGF-IT or bi-EGF-IT, without tumor cell injection.

[8] = non-tumor-bearing NSG mice, 13 days after the first injection

| Compound | pIC50 [1] | pIC50 [2] | pIC50 [3] | in vitro efficacy against the examined HNSCC cell lines [4] | blocking of anti-human EGFR mAb binding to Cal27 (result in words) [5] | pIC50 [6] | adverse effects observed in treated mice ([7]; mice of the efficacy studies) | general condition and skin ([7]; non-tumor-bearing NSG mice) | necropsy, gastrointestinal tract [7, 8] | necropsy, liver [7, 8] |
| --- | --- | --- | --- | --- | --- | --- | --- | --- | --- | --- |
| C#Cc1cccc(Nc2ncnc3cc(OCCOC)c(OCCOC)cc23)c1 [Erlotinib] | 5.61 | 5.76 | 5.81 | effective in vitro against all 14 examined HNSCC tumor cell lines |  |  |  |  |  |  |
| Bi-EGF IT: DT390 joined by G4S to two human EGF domains linked by (G4S)3, C-terminal 6×His tag; SEQ ID NO: 10 |  |  |  |  | bound significantly stronger to Cal27 cells compared with mono-EGF-IT | 10.25 | these adverse effects were not observed | but not bi-EGF-IT, were again generally unhealthy and lethargic with skin rashes | normal appearance of the gastrointestinal tract | no significant abnormal findings |
